Measured values as given in PubChem BioAssay (NCI).
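96-well plates; 48 h exposure; 5 concentrations. Endpoints by linear interpolation between flanking doses. Not reached: highest tested concentration assigned. TGI denotes the concentration required for complete inhibition of growth.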

Tests used:
Assay in all cases: NCI anticancer screen, dose series, 48 h
[1] = system: DMS 114 small cell lung
[2] = system: KM20L2 colon
[3] = system: LXFL 529 NSCLC
[4] = system: M19-MEL melanoma
[5] = system: SNB-78 CNS
[6] = system: DLD-1 colon
[7] = system: MCF7 breast

Row | SMILES | TGI [1] | TGI [2] | TGI [3] | TGI [4] | TGI [5] | TGI [6] | TGI [7]
1 | CCCCCCCC(=O)OCC1OC(n2cc(F)c(=O)[nH]c2=O)C(NC(=O)OCc2ccccc2)C(OC(=O)CCCCCCC)C1O (stereo not drawn) | > 100 µM | > 100 µM | > 100 µM | 54.6 µM | > 100 µM |  | 
2 | O=C(COc1ccc(Cl)cc1)N1N=C(c2ccc([N+](=O)[O-])o2)CC1(O)c1ccccc1 (stereo not drawn) |  | 30.4 µM |  | 10.1 µM | 37.6 µM | > 100 µM | 
3 | NC1=NC(c2ccccc2)CC(c2cc(Cl)cc(Br)c2O)=N1 (stereo not drawn) | 27.1 µM | 30.8 µM | 31.3 µM | 28.2 µM | 47.7 µM | 25.8 µM | 21.4 µM
4 | N#CC(C(=O)CCC(=O)Nc1ccc(Cl)cc1)c1ccccc1Cl (stereo not drawn) | > 100 µM | > 100 µM | > 100 µM | > 100 µM | > 100 µM | > 100 µM | 
5 | O=C(O)CN(c1ccccc1)S(=O)(=O)c1ccc(Cl)cc1 |  | > 100 µM | > 100 µM | > 100 µM |  | > 100 µM | 
6 | COc1cc2ccnc3c2c(c1OC)CC1CC(O)C(OC)CC31 (stereo not drawn) | > 100 µM | > 100 µM | > 100 µM | > 100 µM | > 100 µM | > 100 µM | 
7 | CCCC1C(=O)C(CC)Cc2c(OC)ccc(OC)c21 (stereo not drawn) |  |  | > 100 µM | > 100 µM | > 100 µM | > 100 µM | 
8 | O=C(O)CCSC(=O)Nc1cccc([N+](=O)[O-])c1 | > 100 µM |  | > 100 µM |  | > 100 µM | > 100 µM | 
9 | CC(C)Cc1ccc(C(C)/C=C2\CCC(CN3CCCC3)C2=O)cc1 (stereo not drawn) | 12.2 µM | 33.3 µM | 4.77 µM | 13.7 µM | 42.5 µM | 6.67 µM | 
10 | C=CCCC(C)N(C(=O)OC(C)(C)C)S(=O)(=O)c1ccc(C)cc1 (stereo not drawn) |  | > 100 µM | > 100 µM |  | > 100 µM | > 100 µM | 
11 | CC(=O)NC1C(OCc2ccccc2)OC(COC(=O)CCCCCNc2ccc([N+](=O)[O-])c3[nH]c4ccc(O)cc4c(=O)c23)C(O)C1OC(C)C(=O)N[C@@H](C)C(=O)N[C@H](CCC(=O)OCc1ccccc1)C(N)=O (stereo partly drawn) |  | 0.893 µM | 3.85 µM | 33.3 µM | 16.3 µM | 10 µM | 
12 | COc1cc([C@@H]2c3cc4c(cc3[C@@H](NCc3ccc(C#N)cc3)C3COC(=O)[C@@H]32)OCO4)cc(OC)c1O (stereo partly drawn) | 4.98 µM | 3.99 µM | 50.2 µM | 19.5 µM | 53.2 µM | 5.33 µM | 
13 | C[C@]12CC(C#N)C(=O)C(O)=C1CC[C@@H]1C2CC[C@@]2(C)C1CC[C@@H]2O (stereo partly drawn) | > 100 µM | > 100 µM | > 100 µM |  | > 100 µM | > 100 µM | 
14 | CC(C)c1cccc(C(C)C)c1N=C(N)C#N | > 59.2 µM | > 100 µM | > 100 µM | > 100 µM | > 100 µM | > 65.6 µM | 
15 | NNC(=O)CCC(=O)Nc1ccc(Cl)cc1Cl | > 100 µM | > 100 µM | > 100 µM | > 100 µM | > 100 µM | > 100 µM | 
16 | CC1Cc2c(N)nc(N3CCOCC3)nc2NC1=O (stereo not drawn) | > 100 µM | > 100 µM |  | > 100 µM |  | > 100 µM | 
17 | O=C(N/C(=C\c1ccc([N+](=O)[O-])cc1)c1nc2ccc(Cl)cc2[nH]1)c1ccccc1 | > 100 µM | 50.9 µM | 70.7 µM | > 100 µM | > 100 µM | 31.3 µM | 
18 | S=P(c1ccccc1)(c1ccccc1)C1(C2(P(=S)(c3ccccc3)c3ccccc3)CC2)CC1 | > 100 µM | > 100 µM | > 100 µM | > 100 µM | > 100 µM | > 100 µM | 
19 | CCN(CC)C(=O)CNC(=O)OC(C)(C)C | > 100 µM | > 100 µM |  | > 100 µM | > 100 µM | > 100 µM | 
20 | C[Si](C)(C)/C=C\CCCN1C(=O)CCC1=O | > 100 µM | > 100 µM | > 100 µM | > 100 µM | > 100 µM |  | 
21 | O=C1NC(=O)C(=O)C(c2nc3ccccc3s2)C1=O | > 100 µM | > 100 µM | > 100 µM | > 100 µM | > 100 µM | > 100 µM | 
22 | Cc1ccc(NC(=O)CC/C(CC(=O)c2ccc(Cl)cc2)=N\NC(=O)C(=O)NN)cc1C | > 100 µM | > 100 µM | > 100 µM | > 100 µM | > 100 µM | > 100 µM | 
23 | CC(=O)O[C@H]1CCC2[C@@H]3CCC4Nc5c(cnn5-c5ccccc5)C[C@]4(C)C3CC[C@@]21C (stereo partly drawn) | 58.3 µM | 37.1 µM | 58.5 µM | 24.4 µM | 63.4 µM | > 100 µM | 
24 | c1ccc2c(c1)nnn2CNc1ccc(N2CCOCC2)cc1 | > 100 µM | > 100 µM | > 100 µM | > 100 µM | > 100 µM | > 100 µM | 
25 | CC1=C2C(=O)C(C)(C)C=C2C(=O)[C@](C)(O)C12CC2 |  | > 1 µM | > 1 µM | > 1 µM | > 1 µM | > 1 µM | 
